Measured values reported in PubChem BioAssay AID1919013 (Molecular Pharmacology Branch, DTP, NCI, 2023).
“And” between values parts separate entries of the source, which are not always exact repeats. Equal values may be shown once.

Tested on: LG0703-F498-PDC complex spheroid growth
Experiment: Anticancer human tumor LG0703-F498-PDC patient-derived lung adenocarcinoma cell line growth inhibition [AhR]
Details: for viability, T/C: stronger effect = lower value
Text: Multicellular complex tumor spheroid response to aryl hydrocarbon receptor antagonists in combination with a variety of drugs and investigational agents in selected tumor cell lines
The current study was undertaken to assess response to aryl hydrocarbon receptor antagonists in combination with standard-of-care drugs and investigational agents in solid tumor complex spheroid models. Complex spheroids include a stromal component modeled by human endothelial cells (HUVEC) and fibroblasts modeled by human mesenchymal stem cells (MSCs). The concentration ranges selected for each drug and investigational agent were based upon clinically achievable concentrations if the clinical Cmax of the agent was known.
Compounds. The drugs and investigational agents: BAY 2416964 (NSC825713), GNF351 (NSC835774), CH-223191 (NSC835775), CPI-455 (NSC825282), aza-TdCyd (NSC777586), decitabine (NSC127716), belinostat (NSC758774), entinostat (NSC756642), pevonedistat (NSC761192), tazemetostat (NSC777109), talazoparib (NSC765396), olaparib (NSC753686), selinexor (NSC780203), nedisertib (M3814, NSC802822), bortezomib (NSC756655), venetoclax (NSC766270), doxorubicin (NSC123127), elimusertib (BAY189344, NSC800525), ceralasertib (AZD6738, NSC777638), TAK-243 (NSC785004), alisertib (NSC759677), etoposide (NSC141540), topotecan (NSC609699), eribulin (NSC707389), gemcitabine (NSC613327), carboplatin (NSC241240), cisplatin (NSC119875), and SN-38 (NSC673596) were obtained from the National Cancer Institute (NCI) Developmental Therapeutics Program Chemical Repository (32). The FDA-approved anticancer drug set is available from the Developmental Therapeutics Program at https://dtp.cancer.gov/organization/dscb/obtaining/available plates.htm. […] The stock solutions were prepared in dimethyl sulfoxide (DMSO, Sigma-Aldrich, St. Louis, MO, cat. D2650), except for the platinum compounds which were prepared in saline (Quality Biological, Gaithersburg, MD, cat. 114-055-101), at 800-fold the tested concentration and stored at -70 degrees C prior to their use. All drugs and investigational agents were tested over a range starting from a high concentration at or near the clinical Cmax and decreasing in half-log increments. If the clinical Cmax for an agent had not been determined, the highest concentration tested was 10 microM (Table 1).
Cell Culture. All cells were maintained in an incubator at 37 degrees C and 5% CO2 with 95% humidity. The PDC lines were cultured according to standard operating procedures established by the NCI PDMR (https://pdmr.cancer.gov). Briefly, all PDCs were thawed and cultured in Matrigel-coated flasks prepared with a working solution of 1X Ham's F-12 nutrient mix, without supplementation (Invitrogen, Waltham, MA, cat. 11765054), 100 U/mL penicillin-streptomycin (Invitrogen, cat. 15140122), and 2.5% Matrigel (Corning Inc., Corning, NY, cat. 354248) for the first three passages. All PDCs were cultured in complete DMEM/F-12 media containing advanced DMEM/F-12 (Invitrogen, cat. 12634028), 4.9% defined fetal bovine serum, heat inactivated (HyClone Laboratories Inc., Logan, UT, cat. SH30070.03HI), 389 ng/mL hydrocortisone (Sigma-Aldrich, cat. H4001), 9.7 ng/mL human EGF recombinant protein (Invitrogen, cat. PHG0313), 23.4 microg/mL adenine (Sigma-Aldrich, cat. A2786), 97.3 U/mL penicillin-streptomycin (Invitrogen, cat. 15140122), 1.9 mM L-glutamine (Invitrogen, cat. 25030081), and 9.7 microM Y-27632 dihydrochloride (Tocris Bioscience, Bristol, United Kingdom, cat. 1254). The PDCs were cultured in complete DMEM/F12 media without 10 microM Y-27632 dihydrochloride for at least two passages prior to the screen. The established cell lines NCI-H1341 and […] were cultured in DMEM/F-12, HEPES (Invitrogen, cat. 11330032), 5% defined fetal bovine serum (HyClone Laboratories Inc., cat. SH30070.03), ITS premix universal culture supplement [insulin (5 microg/mL), transferrin (5 microg/mL), and selenious acid (5 ng/mL)] […]
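Further: luminescence taken as a proxy for viable cell amount.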
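Wherever viability, T/C is given: percent of DMSO vehicle control where 100% means growth equal to vehicle.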

Row | Structure (SMILES) | IC50 (curve of compound) | viability, T/C (compound 0.0316 µM) | viability, T/C (compound 0.1 µM) | viability, T/C (compound 0.316 µM) | viability, T/C (compound 1 µM) | viability, T/C (compound 3.16 µM) | viability, T/C (compound 10 µM) | further results
1 | COc1cccc2c1C(=O)c1c(O)c3c(c(O)c1C2=O)CC(O)(C(=O)CO)CC3OC1CC(N)C(O)C(C)O1 (centres undefined) | 628 nM and 828 nM and 812 nM | 88% and 108% (2×) | 82.8% and 79.7% and 87.9% | 65.5% and 75.9% and 69.5% | 40.7% and 49.1% and 47.5% | 9.35% and 15.7% and 20.4% | 0.71% and 0.83% and 1.09% | –
2 | Cc1ccccc1N=Nc1ccc(NC(=O)c2ccnn2C)c(C)c1 | – | – | – | – | 90.5% [middle of 20 runs] | 85.7% [middle of 20 runs] | – | IC50 (compound alone, run of 06/14/2022): > 10000 nM
3 | Cc1cncc(-c2nc(NCCc3c[nH]c4ccccc34)c3ncn(C(C)C)c3n2)c1 | – | – | – | – | – | – | 0.88% [middle of 19 runs] | –
4 | Nc1ccn(C2OC(CO)C(O)C2(F)F)c(=O)n1 (centres undefined) | < 31.6 nM | 38% and 42% and 41.4% | 37.1% and 44.8% and 35.2% | 35.5% and 47.5% and 34.7% | 32.2% and 38.6% and 33.6% | 26.9% and 34.3% and 30.5% | 20.3% and 28.3% and 21.4% | –
5 | Nc1ncn(C2CC(O)C(CO)O2)c(=O)n1 (centres undefined) | > 1000 nM | 107% and 91.4% and 87.8% | 88.2% and 98.2% and 82.9% | 99.3% and 80.2% and 89.1% | 80% and 86.7% and 87.6% | – | – | viability, T/C (compound 0.00316 µM): 101% (2×) and 107%; viability, T/C (compound 0.01 µM): 102% (2×) and 103%
6 | Nc1ncn(C2CC(O)C(CO)S2)c(=O)n1 (centres undefined) | > 300 nM | – | – | – | – | – | – | viability, T/C (compound 0.000949 µM): 103% and 105% and 108%; viability, T/C (compound 0.003 µM): 92.8% and 98.3% and 109%; viability, T/C (compound 0.00949 µM): 95.4% and 103% and 105%; viability, T/C (compound 0.03 µM): 99.9% and 97.8% and 99.8%; viability, T/C (compound 0.0949 µM): 113% (2×) and 107%; viability, T/C (compound 0.3 µM): 97.1% and 96.6% and 98.7%
7 | O=C(C=Cn1cnc(-c2cc(C(F)(F)F)cc(C(F)(F)F)c2)n1)NNc1cnccn1 | 215 nM and 109 nM and 60.6 nM | – | – | – | – | – | – | viability, T/C (compound 0.00949 µM): 84.1% and 93.9% and 79.2%; viability, T/C (compound 0.03 µM): 83.7% and 79.7% and 62.9%; viability, T/C (compound 0.0949 µM): 55.5% and 52% and 41.8%; viability, T/C (compound 0.3 µM): 48.2% and 37.7% and 35.7%; viability, T/C (compound 0.949 µM): 40.9% and 39.8% and 39.1%; viability, T/C (compound 3 µM): 31.4% and 35.3% and 32.7%

Further lines, with some results ahead:

Row | IC50 (curve of compound) | Structure (SMILES) | viability, T/C (compound 0.0316 µM) | viability, T/C (compound 0.1 µM) | viability, T/C (compound 0.316 µM) | viability, T/C (compound 1 µM) | viability, T/C (compound 3.16 µM) | viability, T/C (compound 10 µM) | further results
8 | > 100 nM | Cn1ncnc1C1c2n[nH]c(=O)c3cc(F)cc(c23)NC1c1ccc(F)cc1 (centres undefined) | 107% and 106% and 95.7% | 86.6% and 102% and 90% | – | – | – | – | viability, T/C (compound 0.000316 µM): 97.7% and 91.1% and 110%; viability, T/C (compound 0.001 µM): 106% and 103% and 98.6%; viability, T/C (compound 0.00316 µM): 96.4% and 111% and 102%; viability, T/C (compound 0.01 µM): 94% and 97.9% and 89.2%
9 | 5660 nM and 8900 nM and 5360 nM | NS(=O)(=O)OCC1CC(n2ccc3c(NC4CCc5ccccc54)ncnc32)CC1O (centres undefined) | 94.3% and 100% and 101% | 105% and 96.8% and 99.1% | 107% and 102% and 97.8% | 89.2% and 103% and 86.7% | 65.2% and 76.8% and 62.9% | 35.8% and 47% and 34.9% | –
10 | 1160 nM and 920 nM and 523 nM | Nc1ccccc1NC(=O)c1ccc(CNC(=O)OCc2cccnc2)cc1 | 90.9% and 98.6% and 92.2% | 105% (2×) and 83.9% | 94.5% and 81.1% and 70.5% | 55.2% and 47.8% and 24.5% | 10.7% and 14.8% and 2.77% | 0.41% and 1.49% and 0.42% | –
11 | 966 nM and 835 nM and 827 nM | O=C(C=Cc1cccc(S(=O)(=O)Nc2ccccc2)c1)NO | 101% and 111% and 110% | 111% and 119% and 116% | 94% and 91.7% and 82.7% | 48.1% and 42% and 45.8% | 12% and 11.7% and 7.36% | 1.95% and 2.42% and 1.39% | –
12 | > 10000 nM | O=C(c1cc(Cc2n[nH]c(=O)c3ccccc23)ccc1F)N1CCN(C(=O)C2CC2)CC1 | 98.7% and 113% and 108% | 106% and 89.2% and 102% | 103% and 91.6% and 85.8% | 99.9% and 95.1% and 114% | 88.3% and 110% and 109% | 74.2% and 90.4% and 94.5% | –
